Measured values as given in patent publication US4409210A, “Antibiotic compound” (priority 1982, dated 1983).
*1 amine or outer side, *2 acyl side, *3 side chain or, on linkers, in order; H or OH if unused. Where a SMILES comes first, the peptide text is derived from it. Bridges are numbered along the chain shown (N, C = ends). [ ]: non-standard residue; d: D form. ξ: configuration not given here. X2 = CCCCCCCCCCCC(CC(=O)[*:1])O[*:2]; ξAsp(3ξ-OH) = NC(C(=O)O)C(O)C(=O)O; X1 = O=C(C1C(O)CCN1[*:1])[*:2]

Tested on: Clindamycin-erythromycin-resistant strains of C. difficile and C. perfringens
Format: cell-based

CCCCCCCCCCCC1CC(=O)N2CCCC2C(=O)NC(CO)C(=O)N2CCCC2C(=O)NC(CCCNC(=N)N)C(=O)NC(C(O)C(=O)O)C(=O)NC(CO)C(=O)N2CCC(O)C2C(=O)NC(C(O)C(=O)O)C(=O)O1 (stereo not shown) [Bu-2517] (PSPR[ξAsp(3ξ-OH)]S[X1][ξAsp(3ξ-OH)]; linker N-C via X2; configuration not given here)
concentration to which strains were susceptible: 1.6 to 3.1 µg/mL
